Laboratory results as given in patent US20250282734A1 (Bayer Aktiengesellschaft, priority 2021, published 2025).
Like-named read-outs stand apart in the source and are kept apart here. Marks after values point to notes of the source that are not given here.

Assays:
[1] = Solubility free acid vs. salt, shake-flask method (Example 12); format: physicochemical
[2] = Determination of exposure in rat after intragastric administration (Example 13); format: in vivo; conditions: for AUC(0-t): female, plasma, po, read-out: AUC(0-tlast); for AUC(0-t) / AUC(0-tlast)norm: free acid in rat plasma
Experimental: Determination of exposure after intragastric application of test compounds was performed in female conscious rats with a body weight of 0.2 kg (minimum) to 0.25 kg (maximum). The test compounds were applied as bolus via intragastric probe to unfed female rats in solution or suspension in the vehicle ethanol/solutol/water (v/v/v 10/40/50).
At the indicated timepoints between 8 min and 24 h after dosing, 150 μl blood were sampled via a catheter from the vena jugularis. The samples were treated with K-EDTA as anticoagulant and stored cooled until further processing (refrigerator, 4° C.). The samples were centrifuged (15 min, 3000 rpm), then an aliquot of 100 μL was taken from the supernatant (plasma), precipitated by addition of 400 μL cold acetonitrile or methanol (abs.) and frozen at −20° C. over night. The samples were centrifuged (15 min, 3000 rpm), then 150 μL of the clear supernatant were taken for analytical testing. Analytics were performed using an Agilent 1200 HPLC-system with LCMS/MS detection.
The applied dose of cholinate according to the invention was adjusted as compared to free acid according to the difference in molecular weight. The resulting equivalent doses were used for comparison.

[3] = Hygroscopy, dynamic vapour sorption (DVS) isotherms (Example 15); format: physicochemical
Experimental: Water sorption isotherms were determined using a DVS Resolution gravimetric sorption analyzer (London, UK), or a DVS Intrinsic instrument (Surface measurement Systems). The sample was dried for 1000 minutes at 0% relative humidity (R.H.). Afterwards the dry weight was recorded. […] The equilibrium criterion for each relative humidity set point was 0.002% per minute relative mass change as a function of time.

[4] = Dissolution profile, flow through cell in FeSSIF / FaSSIF (Example 16); format: physicochemical; conditions: 14 minutes, micronized
Experimental: Prior to the measurements, the samples were micronized using a jet mill (MC DECJET 30) under nitrogen, with a pressure of 4.5 Bar for the injector and 4.0 Bar grinding pressure.
Dissolution rates of the drug substance were then determined using a flow through cell (FTC) from Sotax. All experiments were conducted in triplicates.
Then, the respective medium (FaSSIF or FeSSIF) was pumped through the cell with a pump rate of 2 mL/min for a total time of 14 minutes, resulting in a total volume of 28 mL. This volume was collected in time increments of 2 minutes, leading to 7 collected fractions with 4 mL each. The drug substance concentration of each fraction was determined by HPLC (external standard).

[5] = Solubility of cholinate vs free acid and other salts, shake-flask method (Example 14); format: physicochemical
Experimental: Preparation of FaSSIF (Fasted State Simulated Intestinal Fluid) blank solution: 4.2 g NaOH, 44.7 g NaH2PO4*2 H2O, and 61.86 g NaCl were dissolved in approximately 9.5 L demineralized water. Then, the pH of this solution was adjusted to 6.50+/−0.05 using HCl or NaOH, respectively. In the last step, the final volume was adjusted to 10.0 L by the addition of demineralized water.
Preparation of the final FaSSIF solution: 4.48 g SIF (Simulated Intestinal Fluids) powder (provider: biorelevant.com, Product code: FFF01 (May 2022)) were dissolved in approximately 500 mL FaSSIF blank solution, then the final volume was adjusted to 2.0 L by the addition of FaSSIF blank solution. After 2 hours, the solution was considered to be ready to use and was used within 48 hours.
Preparation of FeSSIF (Fed State Simulated Intestinal Fluid) blank solution: 40.4 g NaOH, 118.74 g NaCl, and 82.4 mL glacial acetic acid were dissolved in approximately 9.5 L demineralized water. Then, the pH of this solution was adjusted to 5.00+/−0.05 using HCl or NaOH, respectively. In the last step, the final volume was adjusted to 10.0 L by the addition of demineralized water.
Preparation of the final FeSSIF solution: 22.4 g SIF powder (provider: biorelevant.com, Product code: FFF01 (May 2022)) were dissolved in approximately 500 mL FeSSIF blank solution, then the final volume was adjusted to 2.0 L by the addition of FeSSIF blank solution. The solution was considered to be ready to use immediately after manufacturing and was used within 48 hours.

SMILES: O=C(O)c1cc(NC(=O)C2(c3ccc(C(F)(F)F)cc3F)CC2)ccc1-c1cnn(C2CCC2)c1 [free acid, 2-(1-cyclobutyl-1H-pyrazol-4-yl)-5-[({1-[2-fluoro-4-(trifluoromethyl)-phenyl]cyclopropyl}carbonyl)amino]benzoic acid]
- solubility ([1]; Acetone, 25° C.): 10100 mg/L
- solubility ([1]; Acetonitrile, 25° C.): 1290 mg/L
- solubility ([1]; Ethanol, 25° C.): 4260 mg/L
- solubility ([1]; PEG 400, 25° C.): 6830 mg/L
- solubility ([1]; Phosphate buffer pH 7, 25° C.): 87 mg/L
- solubility ([1]; Solutol/Ethanol/Water (40/10/50 V/V/V), 25° C.): 1300 mg/L
- solubility ([1]; Water, 25° C., stirred overnight): <1* mg/L
- pH of the clear solution ([1]; solubility test in water, pH of water before stirring: 5.57): *pH of the clear solution: 4.6
- AUC(0-t) ([2]; rat, 3 mg/kg, dose equiv. 3 mg/kg): 24 µg·h/mL
- AUC(0-t) ([2]; rat, 30 mg/kg, dose equiv. 30 mg/kg): 149 µg·h/mL
- AUC(0-t) ([2]; rat, 100 mg/kg, dose equiv. 100 mg/kg): 247 µg·h/mL
- AUC(0-t) ([2]; rat, 150 mg/kg, dose equiv. 150 mg/kg): 225 µg·h/mL
- AUC(0-tlast)norm ([2]; dose equiv. 3 mg/kg): 8.1 kg·h/L
- AUC(0-tlast)norm ([2]; dose equiv. 30 mg/kg): 5 kg·h/L
- AUC(0-tlast)norm ([2]; dose equiv. 100 mg/kg): 2.5 kg·h/L
- AUC(0-tlast)norm ([2]; dose equiv. 150 mg/kg): 1.5 kg·h/L
- Increase of plasma exposure of free acid with dose ([2]; rat, doses above 30 mg/kg): much less than dose-proportional increase of exposure
- Change in mass [%], Desorption ([3]; 0% Relative humidity): 0.65%
- Change in mass [%], Sorption ([3]; 0% Relative humidity): 0.06%
- Change in mass [%], Desorption ([3]; 10% Relative humidity): 0.52%
- Change in mass [%], Sorption ([3]; 10% Relative humidity): 0.08%
- Change in mass [%], Desorption ([3]; 20% Relative humidity): 0.42%
- Change in mass [%], Sorption ([3]; 20% Relative humidity): 0.10%
- Change in mass [%], Desorption ([3]; 30% Relative humidity): 0.35%
- Change in mass [%], Sorption ([3]; 30% Relative humidity): 0.12%
- Change in mass [%], Desorption ([3]; 40% Relative humidity): 0.29%
- Change in mass [%], Sorption ([3]; 40% Relative humidity): 0.14%
- Change in mass [%], Desorption ([3]; 50% Relative humidity): 0.16%
- Change in mass [%], Sorption ([3]; 50% Relative humidity): 0.17%
- Change in mass [%], Desorption ([3]; 60% Relative humidity): 0.09%
- Change in mass [%], Sorption ([3]; 60% Relative humidity): 0.20%
- Change in mass [%], Desorption ([3]; 70% Relative humidity): 0.05%
- Change in mass [%], Sorption ([3]; 70% Relative humidity): 0.23%
- Change in mass [%], Desorption ([3]; 80% Relative humidity): 0.03%
- Change in mass [%], Sorption ([3]; 80% Relative humidity): 0.29%
- Change in mass [%], Desorption ([3]; 90% Relative humidity): 0.01%
- Change in mass [%], Sorption ([3]; 90% Relative humidity): 0.44%
- Change in mass [%], Desorption ([3]; 95% Relative humidity): 0.00%
- Change in mass [%], Sorption ([3]; 95% Relative humidity): 0.65%
- Dissolution in FaSSIF, comparison in words ([4]; FaSSIF): dissolved slower
- Dissolution in FeSSIF, comparison in words ([4]; FeSSIF): significantly slower

SMILES: N=C(N)NCCC[C@H](N)C(=O)O.O=C(O)c1cc(NC(=O)C2(c3ccc(C(F)(F)F)cc3F)CC2)ccc1-c1cnn(C2CCC2)c1 [Arginine Salt, Arginine salt of 2-(1-cyclobutyl-1H-pyrazol-4-yl)-5-[({1-[2-fluoro-4-(trifluoromethyl)phenyl]cyclopropyl}carbonyl)amino]benzoate]
- Change in mass [%], Desorption ([3]; 0% Relative humidity): 31.74%
- Change in mass [%], Sorption ([3]; 0% Relative humidity): 0.00%
- Change in mass [%], Desorption ([3]; 10% Relative humidity): 20.17%
- Change in mass [%], Sorption ([3]; 10% Relative humidity): 1.39%
- Change in mass [%], Desorption ([3]; 20% Relative humidity): 12.15%
- Change in mass [%], Sorption ([3]; 20% Relative humidity): 2.13%
- Change in mass [%], Desorption ([3]; 30% Relative humidity): 10.78%
- Change in mass [%], Sorption ([3]; 30% Relative humidity): 2.98%
- Change in mass [%], Desorption ([3]; 40% Relative humidity): 10.09%
- Change in mass [%], Sorption ([3]; 40% Relative humidity): 4.25%
- Change in mass [%], Desorption ([3]; 50% Relative humidity): 9.59%
- Change in mass [%], Sorption ([3]; 50% Relative humidity): 5.72%
- Change in mass [%], Desorption ([3]; 60% Relative humidity): 9.10%
- Change in mass [%], Sorption ([3]; 60% Relative humidity): 7.20%
- Change in mass [%], Desorption ([3]; 70% Relative humidity): 6.12%
- Change in mass [%], Sorption ([3]; 70% Relative humidity): 9.40%
- Change in mass [%], Desorption ([3]; 80% Relative humidity): 4.54%
- Change in mass [%], Sorption ([3]; 80% Relative humidity): 13.25%
- Change in mass [%], Desorption ([3]; 90% Relative humidity): 2.87%
- Change in mass [%], Sorption ([3]; 90% Relative humidity): 20.10%
- Change in mass [%], Desorption ([3]; 95% Relative humidity): 1.60%
- Change in mass [%], Sorption ([3]; 95% Relative humidity): 31.74%

SMILES: O=C([O-])c1cc(NC(=O)C2(c3ccc(C(F)(F)F)cc3F)CC2)ccc1-c1cnn(C2CCC2)c1.[K+] [Potassium salt, Potassium 2-(1-cyclobutyl-1H-pyrazol-4-yl)-5-[({1-[2-fluoro-4-(trifluoromethyl)phenyl]cyclopropyl}carbonyl)amino]benzoate]
- solubility ([5]; Buffer pH 4.5, 25° C.): 5 mgfree acid/L
- solubility ([5]; Buffer pH 7, 25° C.): 684 mgfree acid/L
- solubility ([5]; Buffer pH 8, 25° C.): >11594 mgfree acid/L
- solubility ([5]; FaSSIF (37° C.) (Fasted State Simulated Intestinal Fluid)): 781 mgfree acid/L
- solubility ([5]; FeSSIF (37° C.) (Fed State Simulated Intestinal Fluid)): 24 mgfree acid/L
- solubility ([5]; Water, 25° C.): 6425 mgfree acid/L
- Change in mass [%], Desorption ([3]; 0% Relative humidity): 67.05%
- Change in mass [%], Sorption ([3]; 0% Relative humidity): 1.84%
- Change in mass [%], Desorption ([3]; 10% Relative humidity): 36.40%
- Change in mass [%], Sorption ([3]; 10% Relative humidity): 3.33%
- Change in mass [%], Desorption ([3]; 20% Relative humidity): 21.86%
- Change in mass [%], Sorption ([3]; 20% Relative humidity): 4.12%
- Change in mass [%], Desorption ([3]; 30% Relative humidity): 15.18%
- Change in mass [%], Sorption ([3]; 30% Relative humidity): 5.53%
- Change in mass [%], Desorption ([3]; 40% Relative humidity): 11.85%
- Change in mass [%], Sorption ([3]; 40% Relative humidity): 8.59%
- Change in mass [%], Desorption ([3]; 50% Relative humidity): 9.24%
- Change in mass [%], Sorption ([3]; 50% Relative humidity): 11.39%
- Change in mass [%], Desorption ([3]; 60% Relative humidity): 6.66%
- Change in mass [%], Sorption ([3]; 60% Relative humidity): 14.10%
- Change in mass [%], Desorption ([3]; 70% Relative humidity): 4.31%
- Change in mass [%], Sorption ([3]; 70% Relative humidity): 17.79%
- Change in mass [%], Desorption ([3]; 80% Relative humidity): 2.92%
- Change in mass [%], Sorption ([3]; 80% Relative humidity): 24.21%
- Change in mass [%], Desorption ([3]; 90% Relative humidity): 1.40%
- Change in mass [%], Sorption ([3]; 90% Relative humidity): 37.54%
- Change in mass [%], Desorption ([3]; 95% Relative humidity): 0.00%
- Change in mass [%], Sorption ([3]; 95% Relative humidity): 67.05%
- DVS Dm @ 30% R.H. (Sorption) ([3]; summarized results, 30% R.H.): 5.5%
- DVS Dm @ 50% R.H. (Sorption) ([3]; summarized results, 50% R.H.): 11.4%
- DVS Dm @ 80% R.H. (Sorption) ([3]; summarized results, 80% R.H.): 24.2%
